Experimental data as given in patent publication US20030104507A1, “Method for detection of ATP” (priority 2001, published 2003).

Columns and labels:
LucPpy = target: T1, LucPpy (Photinus pyralis, UniProt P08659); assay: Stability of reagent composition with LucPpy and detergent (RT, pH 7.0); assay type: biochemical; settings: LucPpy
T1 construct: purchased Promega E170A
Excerpt: (§1) The detergents used for inhibition of endogenous ATPase activity in a sample also affect activity of luciferase. […] It is ultimately the extended stability of a reagent composition, comprising an ATPase inhibitor and a luciferase enzyme, which provides a composition useful for measuring ATP, in a sample or samples, over an extended period of time.
(§2) In this experiment, the stability of a reagent composition comprising wild type LucPpy was compared to the stability of a reagent composition comprising LucPpe2m146 at about 23° C. (room temperature). The various reagent compositions had varying detergent concentrations.
(§3) Two solutions were created as listed below. One contained the luciferase, luciferin, MgSO4, and buffer (reagent composition). The other solution contained media plus ATP (media solution).
(§4) 50 μg/ml enzyme (LucPpy is Promega catalog #E170A)
(§5) Detergent (at various concentrations, see table below)
(§6) For each reagent composition, all ingredients except the luciferase enzyme were assembled; the enzyme was then added immediately before the first luminescence reading was taken. Immediately after addition of enzyme to each reagent composition and for various timepoints thereafter, 100 μl aliquots of the reagent composition were added to wells of a 96-well microtitre luminometer plate in triplicate. To these were added 100 μl Media Solution containing the ATP. Luminescence was then immediately read on a Dynex MLX microtitreplate luminometer, 0.5 second reads per well. The average relative light unit values as well as the reaction half lives are listed below in Table I and the percent of original luminescence remaining at each timepoint is listed in Table J below. The timepoint at the top of the column indicates the time at which the first rlu measurement for the samples in that column was read. […] Times listed in Table I are the same for Table J. The values for sulfobetaine and for CTAB were generated on different days, they are presented with the control values generated in the same experiment.

LucPpe2m146 = assay: Stability of reagent composition with LucPpe2m146 and detergent (RT, pH 7.0); assay type: biochemical, Photuris pennsylvanica
Excerpt: as §1, §2, §3, §4, §5, §6

## C[C@H](CCC(=O)[O-])[C@H]1CC[C@H]2[C@@H]3CC[C@@H]4C[C@H](O)CC[C@]4(C)[C@H]3C[C@H](O)[C@]12C.[Na+] [Deoxycholate, sodium deoxycholate]
LucPpy; 0.02%, 0.75 min (head r32)
  Average Relative Light Units: 3199.250 rlu
LucPpy; 0.02%, 0.75 min (times of Table I r32)
  Percent of Luminescence Remaining: 100.00%
LucPpy; 0.02%, 38 min (head r32)
  Average Relative Light Units: 2844.010 rlu
LucPpy; 0.02%, 38 min (times of Table I r32)
  Percent of Luminescence Remaining: 88.90%
LucPpy; 0.02%, 70 min (head r32)
  Average Relative Light Units: 2626.260 rlu
LucPpy; 0.02%, 70 min (times of Table I r32)
  Percent of Luminescence Remaining: 82.09%
LucPpy; 0.02%, 94 min (head r32)
  Average Relative Light Units: 2496.570 rlu
LucPpy; 0.02%, 94 min (times of Table I r32)
  Percent of Luminescence Remaining: 78.04%
LucPpy; 0.02%, 122 min (head r32)
  Average Relative Light Units: 2314.910 rlu
LucPpy; 0.02%, 122 min (times of Table I r32)
  Percent of Luminescence Remaining: 72.3%
LucPpy; 0.1%, 0.75 min (head r18)
  Average Relative Light Units: 19.771 rlu
LucPpy; 0.1%, 0.75 min (times of Table I r18)
  Percent of Luminescence Remaining: 100.00%
LucPpy; 0.1%, 10 min (head r18)
  Average Relative Light Units: 0.180 rlu
LucPpy; 0.1%, 10 min (times of Table I r18)
  Percent of Luminescence Remaining: 0.91%
LucPpy; 0.1%, 36 min (head r18)
  Average Relative Light Units: 0.026 rlu
LucPpy; 0.1%, 36 min (times of Table I r18)
  Percent of Luminescence Remaining: 0.13%
LucPpy; 0.5%, 0.75 min (head r5)
  Average Relative Light Units: 4.801 rlu
LucPpy; 0.5%, 0.75 min (times of Table I r5)
  Percent of Luminescence Remaining: 100.00%
LucPpy; 0.5%, 21 min (head r5)
  Average Relative Light Units: 0.012 rlu
LucPpy; 0.5%, 21 min (times of Table I r5)
  Percent of Luminescence Remaining: 0.25%
LucPpy; 0.5%, 39 min (head r5)
  Average Relative Light Units: 0.007 rlu
LucPpy; 0.5%, 39 min (times of Table I r5)
  Percent of Luminescence Remaining: 0.15%
LucPpe2m146; LucPpe2m146, 0.02%, 1.0 min (head r67)
  Average Relative Light Units: 24307.30 rlu
LucPpe2m146; LucPpe2m146, 0.02%, 1.0 min (times of Table I r67)
  Percent of Luminescence Remaining: 100.00%
LucPpe2m146; LucPpe2m146, 0.02%, 34 min (head r67)
  Average Relative Light Units: 24639.00 rlu
LucPpe2m146; LucPpe2m146, 0.02%, 34 min (times of Table I r67)
  Percent of Luminescence Remaining: 101.36%
LucPpe2m146; LucPpe2m146, 0.02%, 65 min (head r67)
  Average Relative Light Units: 24717.97 rlu
LucPpe2m146; LucPpe2m146, 0.02%, 65 min (times of Table I r67)
  Percent of Luminescence Remaining: 101.69%
LucPpe2m146; LucPpe2m146, 0.02%, 115 min (head r67)
  Average Relative Light Units: 23158.37 rlu
LucPpe2m146; LucPpe2m146, 0.02%, 115 min (times of Table I r67)
  Percent of Luminescence Remaining: 95.27%
LucPpe2m146; LucPpe2m146, 0.02%, 175 min (head r67)
  Average Relative Light Units: 24655.43 rlu
LucPpe2m146; LucPpe2m146, 0.02%, 175 min (times of Table I r67)
  Percent of Luminescence Remaining: 101.43%
LucPpe2m146; LucPpe2m146, 0.02%, 238 min (head r67)
  Average Relative Light Units: 24320.6 rlu
LucPpe2m146; LucPpe2m146, 0.02%, 238 min (times of Table I r67)
  Percent of Luminescence Remaining: 100.05%
LucPpe2m146; LucPpe2m146, 0.02%, 286 min (head r67)
  Average Relative Light Units: 24303.9 rlu
LucPpe2m146; LucPpe2m146, 0.02%, 286 min (times of Table I r67)
  Percent of Luminescence Remaining: 99.99%
LucPpe2m146; LucPpe2m146, 0.1%, 1.0 min (head r54)
  Average Relative Light Units: 5150.43 rlu
LucPpe2m146; LucPpe2m146, 0.1%, 1.0 min (times of Table I r54)
  Percent of Luminescence Remaining: 100.00%
LucPpe2m146; LucPpe2m146, 0.1%, 34 min (head r54)
  Average Relative Light Units: 5031.12 rlu
LucPpe2m146; LucPpe2m146, 0.1%, 34 min (times of Table I r54)
  Percent of Luminescence Remaining: 97.68%
LucPpe2m146; LucPpe2m146, 0.1%, 65 min (head r54)
  Average Relative Light Units: 6855.67 rlu
LucPpe2m146; LucPpe2m146, 0.1%, 65 min (times of Table I r54)
  Percent of Luminescence Remaining: 133.11%
LucPpe2m146; LucPpe2m146, 0.1%, 115 min (head r54)
  Average Relative Light Units: 6340.45 rlu
LucPpe2m146; LucPpe2m146, 0.1%, 115 min (times of Table I r54)
  Percent of Luminescence Remaining: 123.11%
LucPpe2m146; LucPpe2m146, 0.1%, 175 min (head r54)
  Average Relative Light Units: 7347.09 rlu
LucPpe2m146; LucPpe2m146, 0.1%, 175 min (times of Table I r54)
  Percent of Luminescence Remaining: 142.65%
LucPpe2m146; LucPpe2m146, 0.1%, 238 min (head r54)
  Average Relative Light Units: 6801.23 rlu
LucPpe2m146; LucPpe2m146, 0.1%, 238 min (times of Table I r54)
  Percent of Luminescence Remaining: 132.05%
LucPpe2m146; LucPpe2m146, 0.1%, 286 min (head r54)
  Average Relative Light Units: 7472.54 rlu
LucPpe2m146; LucPpe2m146, 0.1%, 286 min (times of Table I r54)
  Percent of Luminescence Remaining: 145.09%
LucPpe2m146; LucPpe2m146, 0.5%, 15 min (head r41)
  Average Relative Light Units: 45.977 rlu
LucPpe2m146; LucPpe2m146, 0.5%, 15 min (times of Table I r41)
  Percent of Luminescence Remaining: 100.00%
LucPpe2m146; LucPpe2m146, 0.5%, 72 min (head r41)
  Average Relative Light Units: 229.874 rlu
LucPpe2m146; LucPpe2m146, 0.5%, 72 min (times of Table I r41)
  Percent of Luminescence Remaining: 499.98%
LucPpe2m146; LucPpe2m146, 0.5%, 124 min (head r41)
  Average Relative Light Units: 2059.397 rlu
LucPpe2m146; LucPpe2m146, 0.5%, 124 min (times of Table I r41)
  Percent of Luminescence Remaining: 4479.22%
LucPpe2m146; LucPpe2m146, 0.5%, 190 min (head r41)
  Average Relative Light Units: 1414.397 rlu
LucPpe2m146; LucPpe2m146, 0.5%, 190 min (times of Table I r41)
  Percent of Luminescence Remaining: 3076.34%
LucPpe2m146; LucPpe2m146, 0.5%, 251 min (head r41)
  Average Relative Light Units: 1342.963 rlu
LucPpe2m146; LucPpe2m146, 0.5%, 251 min (times of Table I r41)
  Percent of Luminescence Remaining: 2920.97%
